Some test systems named below: CAKI-1 renal; HS 578T breast; IGROV1 ovarian; MCF7 breast; NCI-H23 lung; SF-268 CNS; SK-MEL-2 melanoma; SK-MEL-28 melanoma; SK-OV-3 ovarian; SNB-75 CNS.
Holding throughout (experiment): inhibition of tumour cell growth, NCI panel, 48 h

The values below come from PubChem BioAssay (NCI).

SMILES strings stand for the structures.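 Assay format: 96-well plates, 48-hour exposure. At the TGI there is no net growth.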 A value given as a limit tells only on which side of the number the result lay.

Regarding `CN(C)c1ccc(/C=C(\NC(=O)c2ccccc2)C(=O)NC(CC(=O)O)C(=O)O)cc1` (stereo not given), the TGI in the test on CAKI-1 renal, in the test on HS 578T breast, in the test on IGROV1 ovarian, in the test on MCF7 breast, with NCI-H23 lung and in the test on SF-268 CNS was above 100 µM in each case. Moreover, the TGI is above 100 µM with SK-MEL-2 melanoma, above 100 µM with SK-MEL-28 melanoma, above 100 µM in the test with SK-OV-3 ovarian and 94.5 µM in the test on SNB-75 CNS.

For the compound `O=C(CCc1cc(O)cc(O)c1)NCCc1cc(OCc2ccccc2)cc(OCc2ccccc2)c1`, the TGI in the test with CAKI-1 renal came out at 36.8 µM; with HS 578T breast it was 48.7 µM; in the test with IGROV1 ovarian it was 31.4 µM; in the test with MCF7 breast, 23.6 µM; in the test on NCI-H23 lung, 24.6 µM; with SF-268 CNS it was 43.2 µM. Besides, the TGI with SK-MEL-2 melanoma came to 28.2 µM; in the test with SK-MEL-28 melanoma, 55 µM; with SK-OV-3 ovarian it was 31.6 µM; in the test on SNB-75 CNS it was 24.5 µM.

Turning to `O=C(CC(NC(=O)C(F)(F)F)C(=O)O)OCc1ccccc1` (stereo not given), the TGI with CAKI-1 renal, with HS 578T breast, in the test on IGROV1 ovarian, in the test with MCF7 breast, in the test with NCI-H23 lung and in the test on SF-268 CNS was above 100 µM in each case. For the same compound, the TGI with SK-MEL-2 melanoma, in the test with SK-MEL-28 melanoma, in the test with SK-OV-3 ovarian and in the test on SNB-75 CNS was above 100 µM each time.

In the case of `Cc1c(C)n(-c2ccccc2)c2nc(S(C)=O)nc(S(C)=O)c12` (stereo not given), the TGI in the test on CAKI-1 renal stood at 2.66 µM; in the test with HS 578T breast, 70.5 µM; in the test with IGROV1 ovarian it was 17.2 µM; in the test on MCF7 breast, 7.1 µM; with NCI-H23 lung it was 29.5 µM; with SF-268 CNS, 22.8 µM. Further, the TGI in the test with SK-MEL-2 melanoma amounted to 10.1 µM; with SK-MEL-28 melanoma, 14.9 µM; with SK-OV-3 ovarian it was 32.4 µM; with SNB-75 CNS, 23.3 µM.

Consider `CN1CSC(=S)N(c2cccc(C(F)(F)F)c2)C1`, for which the TGI came to 74 µM in the test on CAKI-1 renal; 82.2 µM in the test on HS 578T breast; 37.3 µM in the test on IGROV1 ovarian; 33.3 µM in the test with MCF7 breast; 33.2 µM in the test with NCI-H23 lung; 53 µM in the test on SF-268 CNS. In addition, the TGI with SK-MEL-2 melanoma was 43.3 µM; with SK-MEL-28 melanoma it was 52 µM; with SK-OV-3 ovarian, above 100 µM; in the test on SNB-75 CNS it was above 100 µM.

As for `c1ccc(C2=NC3OC2c2ccccc23)cc1` (stereo not given), the TGI with CAKI-1 renal, with HS 578T breast, in the test on IGROV1 ovarian, in the test with MCF7 breast, in the test on NCI-H23 lung and with SF-268 CNS was above 10 µM in each case. The TGI in the test on SK-MEL-2 melanoma, with SK-MEL-28 melanoma, in the test with SK-OV-3 ovarian and in the test on SNB-75 CNS was above 10 µM each time.

Take `CCCCCCN(CCCCCC)C(=S)N/N=C(\C)c1ccccn1`: the TGI is 2.68 µM with CAKI-1 renal; 4.46 µM with HS 578T breast; 2.62 µM with IGROV1 ovarian; 3.16 µM in the test on MCF7 breast; 3.27 µM in the test on NCI-H23 lung; 3.52 µM with SF-268 CNS. Moreover, the TGI in the test on SK-MEL-2 melanoma was 3.02 µM; in the test with SK-MEL-28 melanoma it was 3.04 µM; in the test on SK-OV-3 ovarian, 2.77 µM; in the test on SNB-75 CNS, 3.68 µM.

For the compound `Cc1ccc2c(c1C)C(=O)C1(Cc3cc4c(cc3C1=O)CCC4)C2` (stereo not given), the TGI in the test on CAKI-1 renal, in the test on HS 578T breast, with IGROV1 ovarian, in the test on MCF7 breast, in the test with NCI-H23 lung and with SF-268 CNS was above 100 µM throughout. The TGI with SK-MEL-2 melanoma, in the test on SK-MEL-28 melanoma, in the test with SK-OV-3 ovarian and in the test on SNB-75 CNS was above 100 µM in each case.

For `Cn1c2ccccc2c2ccc3c(c21)C(=O)c1ccc2c4ccccc4n(C)c2c1C3=O`, the TGI in the test on CAKI-1 renal, with HS 578T breast, in the test on IGROV1 ovarian, with MCF7 breast, with NCI-H23 lung and in the test on SF-268 CNS was above 100 µM throughout. Also, the TGI in the test on SK-MEL-2 melanoma, in the test with SK-MEL-28 melanoma, with SK-OV-3 ovarian and in the test on SNB-75 CNS was above 100 µM in each case.

For `CN(/N=C1\C(=O)Nc2ccccc21)c1ccccc1`, the TGI with CAKI-1 renal, with HS 578T breast, with IGROV1 ovarian, in the test on MCF7 breast, in the test with NCI-H23 lung and in the test on SF-268 CNS was above 100 µM each time. Moreover, the TGI in the test with SK-MEL-2 melanoma, in the test with SK-MEL-28 melanoma, in the test with SK-OV-3 ovarian and with SNB-75 CNS was above 100 µM in each case.

As for `O=CC(I)=C(c1ccccc1)c1ccccc1`, the TGI was 30.4 µM with CAKI-1 renal; 63 µM in the test on HS 578T breast; 37.5 µM in the test with IGROV1 ovarian; 31.9 µM in the test on MCF7 breast; 46.9 µM in the test on NCI-H23 lung; above 56.8 µM with SF-268 CNS. For the same compound, the TGI in the test on SK-MEL-2 melanoma is 33.4 µM; with SK-MEL-28 melanoma it was 31.8 µM; in the test with SK-OV-3 ovarian it was 29.9 µM; in the test on SNB-75 CNS it was above 52.7 µM.

Take `COc1ccc2c(c1)c1c(n2CCN2CCCCC2)-c2cccc(OC)c2CC1`: the TGI in the test on CAKI-1 renal was found to be 37.7 µM; in the test with HS 578T breast, 42.4 µM; with IGROV1 ovarian it was 29.8 µM; in the test on MCF7 breast, 35.4 µM; in the test on NCI-H23 lung, 32.1 µM; with SF-268 CNS, 48.8 µM. Also, the TGI is 32.3 µM in the test with SK-MEL-2 melanoma, 35 µM with SK-MEL-28 melanoma, above 100 µM in the test on SK-OV-3 ovarian and 46.1 µM with SNB-75 CNS.

For the compound `CCOC1C=CC(=O)C(CO)O1` (stereo not given), the TGI in the test with CAKI-1 renal turned out to be 27.3 µM; in the test on HS 578T breast, 49 µM; with IGROV1 ovarian, 27.6 µM; in the test on MCF7 breast, 17.7 µM; in the test with NCI-H23 lung it was 27.6 µM; with SF-268 CNS it was 32.5 µM. For the same compound, the TGI in the test on SK-MEL-2 melanoma stood at 37.1 µM; in the test on SK-MEL-28 melanoma, 33.3 µM; in the test with SK-OV-3 ovarian, 33.3 µM; with SNB-75 CNS, 33.5 µM.

Consider `NCCN1CCCCCc2ccccc21`, for which the TGI with CAKI-1 renal, with HS 578T breast, in the test on IGROV1 ovarian, in the test with MCF7 breast, in the test with NCI-H23 lung and in the test on SF-268 CNS was above 10 µM throughout. Also, the TGI in the test with SK-MEL-2 melanoma, in the test on SK-MEL-28 melanoma, in the test with SK-OV-3 ovarian and with SNB-75 CNS was above 10 µM each time.

Take `CC(=O)Nc1nc(Cl)cc(NCC2(CO)CCC2)n1`: the TGI in the test with CAKI-1 renal, in the test with HS 578T breast, in the test on IGROV1 ovarian, with MCF7 breast, in the test on NCI-H23 lung and with SF-268 CNS was above 100 µM in each case. The TGI in the test on SK-MEL-2 melanoma, in the test with SK-MEL-28 melanoma, in the test on SK-OV-3 ovarian and with SNB-75 CNS was above 100 µM throughout.

Turning to `CC(C)C(Br)CCC1=CCC(Br)(Br)C1` (stereo not given), the TGI worked out at 33.7 µM in the test with CAKI-1 renal; 47.4 µM in the test on HS 578T breast; 10.8 µM with IGROV1 ovarian; 23.9 µM in the test on MCF7 breast; 21.5 µM in the test on NCI-H23 lung; 31.2 µM in the test on SF-268 CNS. The TGI amounted to 19.3 µM with SK-MEL-2 melanoma, 29 µM in the test on SK-MEL-28 melanoma, 28.1 µM in the test with SK-OV-3 ovarian and 23.3 µM with SNB-75 CNS.

On to `Cc1c2cccc-2c2cc(O)c3ccccc3c2n1-c1ccc(N(C)C)cc1`, for which the TGI amounted to 31.7 µM in the test with CAKI-1 renal; 37.5 µM in the test with HS 578T breast; 14.5 µM with IGROV1 ovarian; 17.4 µM with MCF7 breast; 18.2 µM in the test on NCI-H23 lung; 32.8 µM with SF-268 CNS. Further, the TGI was 31.4 µM with SK-MEL-2 melanoma, 35 µM in the test with SK-MEL-28 melanoma, 29.3 µM in the test with SK-OV-3 ovarian and 17.5 µM in the test on SNB-75 CNS.

Turning to `COC(=O)/C=C(/C=C1/C(C#N)=C(N)N(c2ccc(Cl)cc2)C1(C)/C(=C\C(=O)OC)C(=O)OC)C(=O)OC` (stereo not given), the TGI in the test with CAKI-1 renal was 45.5 µM; in the test on HS 578T breast, above 100 µM; in the test on IGROV1 ovarian it was 60.2 µM; in the test with MCF7 breast, 46.2 µM; with NCI-H23 lung, 40.5 µM; in the test on SF-268 CNS, 47.8 µM. The TGI with SK-MEL-2 melanoma is 72.2 µM; in the test on SK-MEL-28 melanoma, 36.2 µM; in the test on SK-OV-3 ovarian it was above 100 µM; with SNB-75 CNS it was 63.3 µM.

On to `COc1ccc2nc(NC(=O)/C(C#N)=C/c3ccccc3)sc2c1`, for which the TGI in the test with CAKI-1 renal was above 100 µM; in the test on HS 578T breast, above 100 µM; in the test on IGROV1 ovarian it was above 86.3 µM; in the test on MCF7 breast, above 100 µM; in the test on NCI-H23 lung it was above 100 µM; with SF-268 CNS, above 100 µM. Also, the TGI in the test with SK-MEL-2 melanoma was above 100 µM; with SK-MEL-28 melanoma, above 100 µM; in the test with SK-OV-3 ovarian, above 100 µM; in the test with SNB-75 CNS, above 87.8 µM.

As to `COc1ccc(N=Nc2c(-c3c(OC)cc4occc4c3OC)[nH]c(=O)c(C#N)c2C)cc1`, the TGI with CAKI-1 renal, with HS 578T breast, in the test on IGROV1 ovarian, in the test on MCF7 breast, with NCI-H23 lung and in the test with SF-268 CNS was above 100 µM in each case. Also, the TGI in the test on SK-MEL-2 melanoma, in the test on SK-MEL-28 melanoma, in the test on SK-OV-3 ovarian and in the test with SNB-75 CNS was above 100 µM throughout.

For the compound `CC(C)Oc1cccc(N2C(n3ccnc3)=Nc3ccncc3S2(=O)=O)c1`, the TGI with CAKI-1 renal worked out at 28.3 µM; in the test on HS 578T breast, 38.5 µM; in the test on IGROV1 ovarian, 29.1 µM; in the test on MCF7 breast it was 24.1 µM; with NCI-H23 lung, 24.9 µM; in the test with SF-268 CNS, 30.2 µM. The TGI stood at 26.7 µM with SK-MEL-2 melanoma, 33 µM in the test with SK-MEL-28 melanoma, 31.8 µM in the test on SK-OV-3 ovarian and 33.3 µM in the test on SNB-75 CNS.

With `CN(C)CCN(c1ccccn1)c1ccccn1`, the TGI in the test with CAKI-1 renal, in the test on HS 578T breast, in the test with IGROV1 ovarian, in the test with MCF7 breast, with NCI-H23 lung and in the test on SF-268 CNS was above 100 µM throughout. Also, the TGI with SK-MEL-2 melanoma, with SK-MEL-28 melanoma, in the test on SK-OV-3 ovarian and in the test with SNB-75 CNS was above 100 µM in each case.
